The record followed here is paper PMC10547674, “Bioactive metabolites identified from Aspergillus terreus derived from soil” (AMB Express, 2023).

In series [1] the test system is Escherichia coli ATCC 25922. Kind of series: Agar disc diffusion. To be noted: for Zone of inhibition: E. coli, disc loaded with about 0.01mg; for zone of inhibition at 10 µg/disc: Escherichia coli, ATCC25922. In general terms: In agar diffusion tests the substance spreads into inoculated agar from a disc or well.
Method: (§8) Staphylococcus aureus ATCC 6538, Escherichia coli ATCC 25922, Candida albicans ATCC 10231and Aspergillus niger NRRL-A326 were supplied from Culture Collection Center. The antimicrobial activity of A. terreus extract and 1–4 was investigated by the agar disc diffusion method (Abdel-Wareth et al. [2019]). Nutrient agar (bacteria and yeast) and PDA (fungi) plates were seeded with 0.1 mL of 10^5–10^6 cells/mL then the filter paper discs (0.5 cm) were loaded with about 0.01mg from the extract and compounds, and put on the inoculated agar or PDA plates surface and stayed for 2–4 h at 4°C to reach maximum diffusion. After that, incubation of the plate at 30°C for 24 and 48 h for bacteria and fungi, respectively, to permit maximum growth then the inhibition zone diameter was measured in millimeters (mm). Experiments were carried out in triplicate.
Series [2] deals with Candida albicans ATCC 10231. Kind of series: Agar disc diffusion. To be noted: disc loaded with about 0.01mg; for Zone of inhibition: C. albicans; for zone of inhibition at 10 µg/disc: Candida albicans, ATCC10231, C. albicans.
Method: as §8
Series [3] concerns Aspergillus niger NRRL-A326. As to the kind of experiment: Agar disc diffusion. To be noted: for Zone of inhibition: A. niger, disc loaded with about 0.01mg; for zone of inhibition at 10 µg/disc: Aspergillus niger, NRRLA326.
Method: as §8
Series [4] has as its system Staphylococcus aureus ATCC 6538. Kind of series: Agar disc diffusion. To be noted: disc loaded with about 0.01mg; for Zone of inhibition: S. aureus; for zone of inhibition at 10 µg/disc: Staphylococcus aureus, ATCC6538, S. aureus.
Method: as §8
Series [5] concerns IL-6. Kind of series: LPS-induced inflammatory model, IL-6 level by ELISA. The class given is cell-based, Murine. To be noted: LPS (500 ng/mL)-induced RAW 264.7, sample at ¼ IC50, ELISA of medium; LPS control 227.50 ± 29.2. As for the experimental part: (§1) Murine macrophage cells (RAW 264.7), supplied by American Type Culture Collection (ATCC), were grown on Dulbecco′s Modified Eagle Medium (DMEM), accompanied with 10%, […] and 100 μg/mL from bovine serum, penicillin, and streptomycin respectively. After that, cells were incubated in a CO2 atmosphere (5%, 37 °C) then they sub-cultured every 2 days and the cells of the exponential phase were used all over the procedure.
(§2) RAW 264.7 cells (1.8 × 10^5 cells/mL) were seeded for 18 h in a 24-well plate having DMEM medium (1 mL). […] Then, LPS (Sigma-Aldrich Cat No: L2630) (500 ng/mL, LPS control) was added to all treated and untreated wells to induce the inflammatory process. After incubation for 24 h, the media were taken and frozen till analysis. The untreated wells represented the LPS control group.
(§3) TNF- α quantitative assay ELISA kit (Abcam, ab181421 Human TNF alpha Simple Step) and Il-6 quantitative assay ELISA kit (Abcam, Ab178013 Human IL-6 Simple Step) were used to quantify IL-6 and TNF- α levels in the cell culture medium following the manufacturer′s instructions (Afshari et al. [2005]).

Another series in a line: MTT cell viability. The class given is cell-based, Murine. To be noted: mouse, RAW 264.7 cells. How it is done:
as §1
(§4) In vitro cytotoxicity assay kit MTT-based was purchased from Sigma- Aldrich, MTT cat No: M-5655, MTT solubilization solution: M-8910). RAW 264.7 cells (10,000/well) were plated in a 96-well plate then the test compounds (1–4) and the extract were diluted by a serial dilution technique (1000–4 μg/mL) were introduced and the plate was placed in a CO2 incubator (37 °C for 24 h). The cells were washed by DMEM and incubated with MTT solution (40 μL, 4 h). DMSO (180 μL) was used to solubilize the crystals of formazan and the produced color was measured at λ570 nm. The results were normalized against the control and the cell viability percentage was estimated as follows: %Cell viability=(Absorbance of sample/Absorbance of control)x100.

Series [6] deals with ACE2/Spike (RBD) protein interaction (Homo sapiens, UniProt Q9BYF1). As to the kind of experiment: ACE2: SARS-CoV-2 spike inhibitor screening colorimetric assay. The class given is binding.
ACE2/Spike (RBD) protein interaction, sequence (Q9BYF1 18-740): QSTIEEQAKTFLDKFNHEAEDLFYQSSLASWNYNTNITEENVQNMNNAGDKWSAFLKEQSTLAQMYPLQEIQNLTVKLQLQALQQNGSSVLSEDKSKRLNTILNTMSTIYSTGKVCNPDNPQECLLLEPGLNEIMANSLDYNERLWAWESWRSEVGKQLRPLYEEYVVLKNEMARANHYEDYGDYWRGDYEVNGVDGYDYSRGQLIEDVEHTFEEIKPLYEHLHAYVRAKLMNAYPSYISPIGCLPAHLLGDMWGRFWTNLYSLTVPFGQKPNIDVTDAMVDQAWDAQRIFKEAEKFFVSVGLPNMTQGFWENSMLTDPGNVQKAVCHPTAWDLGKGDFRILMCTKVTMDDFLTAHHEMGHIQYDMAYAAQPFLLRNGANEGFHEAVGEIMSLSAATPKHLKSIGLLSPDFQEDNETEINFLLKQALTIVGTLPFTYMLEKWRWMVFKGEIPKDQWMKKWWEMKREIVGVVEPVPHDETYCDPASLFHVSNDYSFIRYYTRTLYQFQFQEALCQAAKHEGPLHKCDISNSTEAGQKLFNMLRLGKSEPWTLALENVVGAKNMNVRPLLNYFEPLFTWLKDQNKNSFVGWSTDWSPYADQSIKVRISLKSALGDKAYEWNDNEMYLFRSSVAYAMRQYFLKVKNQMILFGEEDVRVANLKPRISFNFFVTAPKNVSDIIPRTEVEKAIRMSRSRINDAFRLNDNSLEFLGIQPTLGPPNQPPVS
The subject of series [7] is TNF-α. As to the kind of experiment: LPS-induced inflammatory model, TNF-α level by ELISA. To be noted: LPS (500 ng/mL)-induced RAW 264.7, sample at ¼ IC50, ELISA of medium; LPS control 452.5 0 ± 46.1. The class given is cell-based, Murine. As for the experimental part:
as §1, §2, §3

Series [8] concerns TNF-α. Kind of series: RT-PCR, TNF-α mRNA expression in LPS-stimulated RAW 264.7 cells. The class given is cell-based, Murine. To be noted: LPS-induced RAW 264.7, compared to LPS control. How it is done: as §2
(§5) RAW 264.7 cells were washed two times and then harvested in PBS (1 mL). Total RNA from the stimulated RAW 264.7 cells was extracted utilizing Qiagen RNA extraction (Qiagen, MD, USA) following the instructions of the procedure. cDNA was synthesized by iScript cDNA synthesis kit (Bio-Rad Laboratories Pty. Ltd, Gladesville, Australia). Rotorgene RT-PCR system (QIAGEN, Germany) was used for PCR amplification using BioRad cyber green PCR MMX (Bio-Rad Laboratories Pty. Ltd, Gladesville, Australia). The primers used for the amplification of IL-6, TNF-α, and β-actin genes are represented in Additional file 1: Table S4.
(§6) The Formula 2^−(ΔΔCt) was used to calculate the relative fold change between samples and control.

Another series deals with C. albicans. As to the kind of experiment: MIC and MBC, resazurin microplate dilution. The class given is cell-based, Candida albicans. As for the experimental part:
(§7) The tested strains were cultivated in 100 mL bottles at 35 °C for 24 h on Mueller Hinton medium (Sigma-Aldrich, Germany). Bacteria and fungi cells (pellet) were collected by centrifugation at 5000 rpm, 4 °C, and under aseptic conditions, then washed with sterile saline till the supernatant became clear. […] Duplicate plates were prepared and incubated (37 °C, 18-24 h). The lowest concentration at which the color is changed is the MIC data, while MBC has been calculated by streaking two concentrations higher than MIC showing no growth ([…] et al. [2007]).
(Alamar Blue is a resazurin reagent that responds to reducing activity.)

The next series relates to RAW 264.7 cells. As to the kind of experiment: MTT cell viability. The class given is cell-based, Murine. To be noted: 24 h. As for the experimental part: as §1, §4
The next series deals with S. aureus. As to the kind of experiment: MIC and MBC, resazurin microplate dilution. The class given is cell-based, Staphylococcus aureus. As for the experimental part: as §7
For series [9], the system named is IL-6. As to the kind of experiment: RT-PCR, IL-6 mRNA expression in LPS-stimulated RAW 264.7 cells. The class given is cell-based, Murine. To be noted: LPS-induced RAW 264.7, compared to LPS control. As for the experimental part:
as §2, §5, §6

[10] abbreviates: RAW 264.7 macrophage cells, read-out: IC50 mean ± SD (cytotoxic effect).
Where [11] appears, read: RAW 264.7 macrophage cells, value given in µM, read-out: IC50 (cytotoxic effect) (converted).
Where [12] appears, read: read-out: IC50 mean ± SD (cytotoxic effect).
Setting [13] is: value given in µM, read-out: IC50 (cytotoxic effect) (converted).

Values after ≈ are worked out from the molar mass of the structure shown. Where two headings read alike, the source gives them in different places.

As to `C[C@@H]1C[C@@H]([C@H](O)CC2CC(=O)NC(=O)C2)C(=O)[C@@H](C)C1` [Cyclohexamide, reference compound], the Zone of inhibition in series [1] is 0 mm; in series [2], 0 mm; in series [3] it was 29 mm; in series [4], 0 mm.
Regarding `CCC/C=C\C/C=C\CCCCC(=O)OCC(COC(=O)CCCC/C=C\C/C=C\CCC)OC(=O)CCCC/C=C\CCCCC` [Compound 1, 1,3-di-(6Z,9Z)-trideca-6,9-dienoyl-2-(6Z) dodec-6-enoyl glycerol], the “IL-6, mean ± SD” value with IL-6 [5] was found to be 51.63 ± 2.79 pg/mL. In addition, the results for the IC50 at 24 h in “MTT cell viability” (setting [10]) and in the series “MTT cell viability” (setting [11]) were 858 µg/mL and 1290 µM, respectively. The IC50 in [6] (tested 5–50 µg/mL, triplicates) was 16 µM; in series [6] (value given in µM) it was 15.8 µM. In addition, the zone of inhibition at 10 µg/disc in series [1], in [2], in [3] and in [4] was 0 mm each time. In the series with TNF-α [7], the “TNF-α mean ± SD” value was found to be 68.220 ± 3.09 pg/mL. The “expression of TNF-α mRNA” value with TNF-α [8] is recorded as “most activity”.
Take `COC(=O)[C@]1(Cc2ccc(O)c(CC=C(C)C)c2)OC(=O)C(O)=C1c1ccc(O)cc1` [Compound 2, butyrolactone I]: the MBC with C. albicans (Candida albicans) and against S. aureus (Staphylococcus aureus) was 250 µg/mL (≈ 589 µM) throughout. For the same molecule, the MIC against C. albicans (Candida albicans) and with S. aureus (Staphylococcus aureus) was 250 µg/mL (≈ 589 µM) throughout. For the same molecule, the “IL-6, mean ± SD” value with IL-6 [5] turned out to be 37.25 ± 0.87 pg/mL. For the same molecule, the IC50 at 24 h is 718 µg/mL in “MTT cell viability” (setting [12]) and 1690 µM in “MTT cell viability” (setting [13]). For the same molecule, the “IC50 mean ± SD (cytotoxic effect)” value in the series on RAW 264.7 cells turned out to be 718.7 ± 40.4 µg/mL (≈ 1690 µM). Moreover, the concentration for half-maximal inhibition (IC50) is 29.4 µM in series [6] (tested 5–50 µg/mL, triplicates) and 29.5 µM in [6] (value given in µM). For the same molecule, the zone of inhibition at 10 µg/disc is 0 mm in series [1], 11 to 22 mm in series [2], 0 mm in [3] and 19 to 25 mm in [4]. For the same molecule, the figures for the Zone of inhibition in series [2] and in series [4] were 11 mm and 19 mm, respectively. For the same molecule, in the series with IL-6 [9], the “expression of IL-6 mRNA” value is reported as “best inhibitory activity”. Besides, the “TNF-α mean ± SD” value in the series with TNF-α [7] is 87.97 ± 6.7 pg/mL.
Regarding `CSC(O)(N1C(=O)CNC(=O)C1Cc1c[nH]c2ccccc12)N1C(=O)CC(=O)N2C(=O)c3cc(O)ccc3CC21` (stereo not shown) [Compound 4, asterrine], the MIC in the series on C. albicans (C. albicans) came to 250 µg/mL (≈ 444 µM); in the series with C. albicans (Candida albicans, C. albicans, read-out: MIC) it was 250 µg/mL (≈ 444 µM); in the series on S. aureus (Staphylococcus aureus, S. aureus, read-out: MIC) it was 125 µg/mL (≈ 222 µM). Moreover, the MBC with C. albicans (Candida albicans, C. albicans, read-out: MBC) is 500 µg/mL (≈ 887 µM); in the series on S. aureus (S. aureus) it was 250 µg/mL (≈ 444 µM); in the series with S. aureus (Staphylococcus aureus, S. aureus, read-out: MBC) it was 250 µg/mL (≈ 444 µM). Also, in the series on IL-6 [5], the “IL-6, mean ± SD” value came to 129.00 ± 1.77 pg/mL. For the same molecule, the values for the IC50 at 24 h in the series “MTT cell viability” (setting [10]) and in “MTT cell viability” (setting [11]) were 449 ± 25.2 µg/mL and 797 µM, respectively. Moreover, the concentration for half-maximal inhibition (IC50) is 15.1 µM in series [6] (tested 5–50 µg/mL, triplicates) and 15.1 µM in series [6] (value given in µM). For the same molecule, the zone of inhibition at 10 µg/disc in series [1] was 0 mm; in series [2], 11 to 22 mm; in series [3] it was 0 mm; in series [4], 19 to 25 mm. Besides, the Zone of inhibition in series [2] is 15 mm; in [4], 25 mm. Moreover, the “TNF-α mean ± SD” value with TNF-α [7] is 268.30 ± 3.43 pg/mL.
For the molecule Neomycin [reference compound], the Zone of inhibition was 8 mm in series [1], 23 mm in [2], 0 mm in [3] and 21 mm in [4].
For `COC(=O)[C@]1(Cc2ccc(O)c(CC3OC3(C)C)c2)OC(=O)C(O)=C1c1ccc(O)cc1` (stereo partly shown) [Compound 3, butyrolactone III], the IC50 at 24 h is 246 µg/mL in the series “MTT cell viability” (setting [12]) and 561 µM in “MTT cell viability” (setting [13]). Further, the “IC50 mean ± SD (cytotoxic effect)” value in the series with RAW 264.7 cells amounted to 246.8 ± 13.9 µg/mL (≈ 560 µM). Moreover, the IC50 in series [6] (tested 5–50 µg/mL, triplicates) is 21.6 µM; in series [6] (value given in µM), 21.6 µM. Besides, the zone of inhibition at 10 µg/disc in series [1], in series [2], in series [3] and in series [4] was 0 mm each time.

In general, IC50 refers to the concentration needed to halve the response being measured. A word on the zone of inhibition: it is the size of the clear area around the sample on an inoculated plate. Usually MIC stands for the smallest concentration in the dilution series that meets the test's criterion for growth inhibition.
